One may read the IC50 as the point on the concentration scale where inhibition reaches its midpoint.

From publication PMC7894522, “Structure Based Design of Bicyclic Peptide Inhibitors of RbAp48” (Angewandte Chemie (International Ed. in English), 2020) come the findings set out here.

Like-named read-outs stand apart in the source and are kept apart here. Starred links: 1 amine or outer side, 2 acyl side, 3 side chain; linkers in the order of their positions; H or OH if unused. Positions of bridges follow the written chain, without caps; N, C: chain ends. Residues, ends and D or L forms follow the SMILES beside them. TBMB = c1c(C[*:1])cc(C[*:3])cc1C[*:2]

The target of the experiment is RbAp48 (Homo sapiens, UniProt Q09028). Briefly: Competitive fluorescence polarization (FP) assay using complex of peptide 1 and RbAp48. It is filed as binding. The following applies: for IC50: competitive FP, RbAp48 15 nM, read-out: IC50. More on the design: Full length RbAp48 was cloned; His tag followed by 3C cleavage site (N, cleaved yes); made in house; host or cells: Sf9 insect cells. On the procedure: The binding affinity of our library of synthetic cyclic peptides was evaluated by a competitive fluorescence polarization (FP) assay using a complex formed by peptide 1 and RbAp48. To reduce the length of the peptide it was truncated to the amino acids which seemed most critical according to the crystal structure (residues 676–689, pdb:4pbz). […] We chose to use a cyclization approach to regain affinity, that is, not to induce more interactions but through minimizing the entropic penalty upon binding by reducing the flexibility of the peptide. To this end two amino acids were chosen which are facing one another in the structure (see Figure 1 B/D/E). Two peptides were designed where glutamic acid was used in position 676 (4) or position 680 (5) and lysine in position 688 for both peptides (see Table 1). The macrocycles were formed by connecting the side chains via an amide bond (see Figure 1 D/E). Peptide synthesis was performed on Rink‐amide resin using the Fmoc‐strategy incorporating Fmoc‐L‐Glu(All)‐OH and Fmoc‐L‐Lys(Alloc)‐OH at the sites for cyclization. After completion of the linear synthesis the allyl protecting groups were removed using Pd^0 catalysis and the amide link was formed by using PyBOP. […] Therefore, a range of peptides was synthesized which were cyclized using the same amino acid positions but via a cysteine alkylation strategy (see Figure 1 D/E and Table 1). In this method the residues used for cyclization are replaced with cysteine and benzylic dibromides act as crosslinkers on the unprotected peptides. ^[11] Previous research has shown that such linkers can effectively stabilize cyclic peptides and yield high affinity ligands for protein–protein interaction inhibition. ^[12] Such a linker introduces a xylene group in close vicinity of the hydrophobic patch potentially reconstituting the lost key hydrophobic interactions. To explore a variety of macrocycle conformations we used either ortho‐, meta‐ or para‐substituted dibromides to exchange the linker in both 4 and 5 (see Figure 1 D/E and Table 1). ^[13]
Protein expression and purification
RbAp48 was expressed and purified by the Dortmund Protein Facility. Full length RbAp48 was cloned into a pOPIN vector ligating it to an N-terminal His tag followed by a 3C cleavage site. The protein was expressed from Sf9 cells for 48 h. Cells were harvested and lysed and the protein was purified by loading onto a HisTrap FF crude 5 ml column followed by on-column cleavage using Precission protease. The cleaved protein was then further purified using a HiLoad 26/60 Superdex 200 column.
Fluorescence polarization assay
Fluorescence polarization assays were performed in 384 wells plates in 80 µl volumes. The assay buffer contains 20 mM Tris-HCl, 150 mM NaCl, 0.01% Tween-20 at pH 7.5. The concentration of the fluorescently labelled peptides was 1 nM plates were incubated at room temperature for 30 min before they were read on a Tecan Spark plate reader (λex = 485 nm, λem = 535 nm).
For competitive assays the same conditions were used with a tracer concentration of 1 nM was used and a protein concentration of 15 nM .

Setting [1] is: Supplemental Table 2, tracer 1 nM, pH 7.5, 30 min room temperature.
Where [2] appears, read: Table 1, tracer peptide 1 1 nM, 20 mM Tris-HCl, 150 mM NaCl, 0.01% Tween-20, pH 7.5, 30 min room temperature, lower limit set by 15 nM protein.

Chain of RbAp48 (Q09028 whole entry, the tested form may be a part): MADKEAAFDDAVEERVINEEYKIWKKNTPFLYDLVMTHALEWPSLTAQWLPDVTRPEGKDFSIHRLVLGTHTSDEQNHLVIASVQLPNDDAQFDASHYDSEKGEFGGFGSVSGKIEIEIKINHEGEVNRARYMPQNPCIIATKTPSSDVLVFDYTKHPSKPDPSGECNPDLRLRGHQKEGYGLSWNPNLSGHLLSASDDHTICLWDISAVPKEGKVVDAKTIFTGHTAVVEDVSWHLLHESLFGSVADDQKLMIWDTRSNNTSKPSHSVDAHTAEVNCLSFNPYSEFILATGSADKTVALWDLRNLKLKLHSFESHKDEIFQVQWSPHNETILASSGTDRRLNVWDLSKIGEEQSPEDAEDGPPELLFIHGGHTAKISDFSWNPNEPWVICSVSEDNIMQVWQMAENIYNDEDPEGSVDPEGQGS

On to `CC(=O)N[C@H]1CSCc2cc3cc(c2)CSC[C@@H](C(=O)N[C@@H](CC(N)=O)C(N)=O)NC(=O)[C@@H]2CCCN2C(=O)[C@H](CC(C)C)NC(=O)[C@H](Cc2ccc(O)cc2)NC(=O)[C@@H]2CCCN2C(=O)[C@H](Cc2c[nH]cn2)NC(=O)[C@H](CCCNC(=N)N)NC(=O)[C@H](C)NC(=O)[C@H](CSC3)NC(=O)[C@H](Cc2c[nH]cn2)NC(=O)[C@H](Cc2c[nH]c3ccccc23)NC(=O)[C@@H]2CCCN2C(=O)[C@H](CCCNC(=N)N)NC1=O` [Peptide 34] (Ac-CRPWHCARHPYLPCN-NH2; linker 1-6-14 via TBMB), for which, under setting [1], the IC50 is 153 ± 2.4 nM.

`CC(=O)N[C@H]1CSCc2cc3cc(c2)CSC[C@@H](C(=O)N[C@@H](CC(N)=O)C(N)=O)NC(=O)[C@@H]2CCCN2C(=O)[C@H](CC(C)C)NC(=O)[C@H](Cc2ccc(O)cc2)NC(=O)[C@@H]2CCCN2C(=O)[C@H](Cc2c[nH]cn2)NC(=O)[C@H](CCCNC(=N)N)NC(=O)[C@H](C)NC(=O)[C@H](CSC3)NC(=O)[C@H](Cc2c[nH]cn2)NC(=O)[C@H](Cc2c[nH]c3ccccc23)NC(=O)[C@@H]2CCCN2C1=O` [Peptide 35] (Ac-CPWHCARHPYLPCN-NH2; linker 1-5-13 via TBMB): the half-maximal inhibitory concentration (IC50) under setting [1] amounted to 7480 ± 3020 nM.

`CC(=O)N[C@H]1CSCc2cc3cc(c2)CSC[C@@H](C(=O)N[C@@H](CCCCN)C(N)=O)NC(=O)[C@H](CCCNC(=N)N)NC(=O)[C@@H]2CCCN2C(=O)[C@H](C)NC(=O)[C@H]([C@@H](C)O)NC(=O)[C@H](CCCCN)NC(=O)[C@H](Cc2ccc(O)cc2)NC(=O)[C@H](CCCNC(=N)N)NC(=O)[C@H](CSC3)NC(=O)[C@H](C)NC(=O)[C@H](CCCNC(=N)N)NC(=O)[C@@H]2CCCN2C1=O` [Peptide 36] (Ac-CPRACRYKTAPRCK-NH2; linker 1-5-13 via TBMB): the IC50 under setting [2] is greater than 10000 nM. The “FP activity in words” value (competitive FP assay) was “completely lose affinity”.

For the molecule `CC(=O)N[C@H]1CSCc2cc3cc(c2)CSC[C@@H](C(=O)N[C@@H](C)C(N)=O)NC(=O)[C@@H]2CCCN2C(=O)[C@H](CCCCN)NC(=O)[C@H](Cc2ccc(O)cc2)NC(=O)[C@@H]2CCCN2C(=O)[C@H](CCCNC(=N)N)NC(=O)[C@H](CCCNC(=N)N)NC(=O)[C@H](C)NC(=O)[C@H](CSC3)NC(=O)[C@H](CCCNC(=N)N)NC(=O)[C@H](CCCCN)NC(=O)[C@H](C)NC1=O` [Peptide 37] (Ac-CAKRCARRPYKPCA-NH2; linker 1-5-13 via TBMB), the half-maximal inhibitory concentration (IC50) under setting [2] was determined as 12.4 ± 3.2 nM.

`CC(=O)N[C@H]1CSCc2cc3cc(c2)CSC[C@@H](C(=O)N[C@@H](C)C(N)=O)NC(=O)[C@@H]2CCCN2C(=O)[C@H](CCCCN)NC(=O)[C@H](Cc2ccc(O)cc2)NC(=O)[C@@H]2CCCN2C(=O)[C@H](CCCNC(=N)N)NC(=O)[C@H](CCCNC(=N)N)NC(=O)[C@H](C)NC(=O)[C@H](CSC3)NC(=O)[C@H](CCCNC(=N)N)NC(=O)[C@H](C)NC(=O)[C@H]([C@@H](C)O)NC1=O` [Peptide 38] (Ac-CTARCARRPYKPCA-NH2; linker 1-5-13 via TBMB): the IC50 under setting [2] came out at 263 ± 42.7 nM.

In the case of `CC(=O)N[C@H]1CSCc2cc3cc(c2)CSC[C@@H](C(=O)N[C@@H](C)C(N)=O)NC(=O)[C@@H]2CCCN2C(=O)[C@H](CCCCN)NC(=O)[C@H](Cc2ccc(O)cc2)NC(=O)[C@@H]2CCCN2C(=O)[C@H](CCCNC(=N)N)NC(=O)[C@H](CCCNC(=N)N)NC(=O)[C@H](C)NC(=O)[C@H](CSC3)NC(=O)[C@H](C)NC(=O)[C@H](CCCCN)NC(=O)[C@H]([C@@H](C)O)NC1=O` [Peptide 39] (Ac-CTKACARRPYKPCA-NH2; linker 1-5-13 via TBMB), the IC50 under setting [2] was 77.4 ± 9.6 nM.

In the case of `CC(=O)N[C@H]1CSCc2cc3cc(c2)CSC[C@@H](C(=O)N[C@@H](C)C(N)=O)NC(=O)[C@@H]2CCCN2C(=O)[C@H](CCCCN)NC(=O)[C@H](Cc2ccc(O)cc2)NC(=O)[C@@H]2CCCN2C(=O)[C@H](C)NC(=O)[C@H](CCCNC(=N)N)NC(=O)[C@H](C)NC(=O)[C@H](CSC3)NC(=O)[C@H](CCCNC(=N)N)NC(=O)[C@H](CCCCN)NC(=O)[C@H]([C@@H](C)O)NC1=O` [Peptide 41] (Ac-CTKRCARAPYKPCA-NH2; linker 1-5-13 via TBMB), under setting [2], the IC50 amounted to 24.6 ± 3.9 nM.

Consider `CC(=O)N[C@H]1CSCc2cc3cc(c2)CSC[C@@H](C(=O)N[C@@H](C)C(N)=O)NC(=O)[C@@H]2CCCN2C(=O)[C@H](CCCCN)NC(=O)[C@H](Cc2ccc(O)cc2)NC(=O)[C@H](C)NC(=O)[C@H](CCCNC(=N)N)NC(=O)[C@H](CCCNC(=N)N)NC(=O)[C@H](C)NC(=O)[C@H](CSC3)NC(=O)[C@H](CCCNC(=N)N)NC(=O)[C@H](CCCCN)NC(=O)[C@H]([C@@H](C)O)NC1=O` [Peptide 42] (Ac-CTKRCARRAYKPCA-NH2; linker 1-5-13 via TBMB), for which, under setting [2], the half-inhibitory concentration (IC50) was found to be 131 ± 15.3 nM.

For `CC(=O)N[C@H]1CSCc2cc3cc(c2)CSC[C@@H](C(=O)N[C@@H](C)C(N)=O)NC(=O)[C@@H]2CCCN2C(=O)[C@H](CCCCN)NC(=O)[C@H](C)NC(=O)[C@@H]2CCCN2C(=O)[C@H](CCCNC(=N)N)NC(=O)[C@H](CCCNC(=N)N)NC(=O)[C@H](C)NC(=O)[C@H](CSC3)NC(=O)[C@H](CCCNC(=N)N)NC(=O)[C@H](CCCCN)NC(=O)[C@H]([C@@H](C)O)NC1=O` [Peptide 43] (Ac-CTKRCARRPAKPCA-NH2; linker 1-5-13 via TBMB), the 50% inhibitory concentration (IC50) under setting [2] was determined as 38.3 ± 1.9 nM.

As to `CC(=O)N[C@H]1CSCc2cc3cc(c2)CSC[C@@H](C(=O)N[C@@H](C)C(N)=O)NC(=O)[C@@H]2CCCN2C(=O)[C@H](C)NC(=O)[C@H](Cc2ccc(O)cc2)NC(=O)[C@@H]2CCCN2C(=O)[C@H](CCCNC(=N)N)NC(=O)[C@H](CCCNC(=N)N)NC(=O)[C@H](C)NC(=O)[C@H](CSC3)NC(=O)[C@H](CCCNC(=N)N)NC(=O)[C@H](CCCCN)NC(=O)[C@H]([C@@H](C)O)NC1=O` [Peptide 44] (Ac-CTKRCARRPYAPCA-NH2; linker 1-5-13 via TBMB), under setting [2], the IC50 is 19.8 ± 3.6 nM.

`CC(=O)N[C@H]1CSCc2cc3cc(c2)CSC[C@H](NC(=O)[C@H](CCCNC(=N)N)NC(=O)[C@H](CCCCN)NC(=O)[C@H]([C@@H](C)O)NC1=O)C(=O)N[C@@H](C)C(=O)N[C@@H](CCCNC(=N)N)C(=O)N[C@@H](CCCNC(=N)N)C(=O)N1CCC[C@H]1C(=O)N[C@@H](Cc1ccc(O)cc1)C(=O)N[C@@H](CCCCN)C(=O)N[C@@H](C)C(=O)N[C@H](C(=O)N[C@@H](C)C(N)=O)CSC3` [Peptide 45] (Ac-CTKRCARRPYKACA-NH2; linker 1-5-13 via TBMB): the concentration for half-maximal inhibition (IC50) under setting [2] was 15.6 ± 2.2 nM.

Regarding `CC(=O)N[C@H]1CSCc2cc3cc(c2)CSC[C@H](NC(=O)[C@H](CCCNC(=N)N)NC(=O)[C@H](CCCCN)NC(=O)[C@H]([C@@H](C)O)NC1=O)C(=O)N[C@@H](C)C(=O)N[C@@H](CCCNC(=N)N)C(=O)N[C@@H](CCCNC(=N)N)C(=O)N1CCC[C@H]1C(=O)N[C@@H](Cc1ccc(O)cc1)C(=O)N[C@@H](CCCCN)C(=O)N1CCC[C@H]1C(=O)N[C@H](C(N)=O)CSC3` [Peptide 46] (Ac-CTKRCARRPYKPC-NH2; linker 1-5-13 via TBMB), the IC50 under setting [2] came out at 20.5 ± 1.4 nM.
